Experimental data from PMC4648589, “Selection of an HLA-C*03:04-Restricted HIV-1 p24 Gag Sequence Variant Is Associated with Viral Escape from KIR2DL3+ Natural Killer Cells: Data from an Observational Cohort in South Africa” (PLoS Medicine, 2015).
pKd: −log10 of the molar value. “And” between values parts separate entries of the source, which are not always exact repeats. Equal entries are not always repeated.

Assays:
HLA-C*03:04 = HLA-C*03:04 (Homo sapiens, UniProt P10321, A176E/A330V/A97T/C25G/C350S/D114A/D33Y/E197K/L119I/L127V/L171W/L218V/M285V/M309V/M331V/P208H/Q277E/Q291P/R243W/R45H/S123Y/S140Y/S297R/S48A/T118I/T187L/T329A/T363A/V319A); assay: HLA-C*03:04 stabilization assay on peptide-pulsed TAP-blocked 721.221-ICP47-C*03:04 cells (W6/32 staining, flow cytometry); assay type: cell-based; details: for HLA-C*03:04 stabilization, mean relative fluorescence intensity (RFI): 100 μM peptide (saturating), 20 h at 26°C, gMFI with peptide divided by gMFI without peptide, mean ± SD of five experiments; for HLA-C*03:04 stabilization, mean relative fluorescence intensity, titration: serial peptide dilutions, non-saturating levels; for HLA-C*03:04 stabilization, mean relative fluorescence intensity, titration / HLA-C*03:04 stabilization, mean relative fluorescence intensity: mean ± SD; for HLA-C*03:04 stabilization, mean relative fluorescence intensity: n = 3
KIR2DL3 = molecular target: T1, KIR2DL3 (Homo sapiens, UniProt P43628); assay: KIR2DL3-Fc binding to peptide-pulsed 721.221-ICP47-C*03:04 cells (flow cytometry); details: for KIR2DL3-Fc binding, percent of cells binding KIR2DL3-Fc: cells pulsed with 100 μM peptide for 20 h, 2.5 μg KIR2DL3-Fc, 1 h on ice, mean ± SD of six independent experiments; for KIR2DL3-Fc Binding (Mean ± SD): ratio of percent KIR2DL3-Fc binding of variant peptide to that of wild-type peptide TGag303
T1 construct: purchased R&D Systems (KIR2DL3-Fc); Immudex (HLA-C*03:04/peptide monomers)
T1 sequence (P43628 with tags, fused parts or gaps limits assumed): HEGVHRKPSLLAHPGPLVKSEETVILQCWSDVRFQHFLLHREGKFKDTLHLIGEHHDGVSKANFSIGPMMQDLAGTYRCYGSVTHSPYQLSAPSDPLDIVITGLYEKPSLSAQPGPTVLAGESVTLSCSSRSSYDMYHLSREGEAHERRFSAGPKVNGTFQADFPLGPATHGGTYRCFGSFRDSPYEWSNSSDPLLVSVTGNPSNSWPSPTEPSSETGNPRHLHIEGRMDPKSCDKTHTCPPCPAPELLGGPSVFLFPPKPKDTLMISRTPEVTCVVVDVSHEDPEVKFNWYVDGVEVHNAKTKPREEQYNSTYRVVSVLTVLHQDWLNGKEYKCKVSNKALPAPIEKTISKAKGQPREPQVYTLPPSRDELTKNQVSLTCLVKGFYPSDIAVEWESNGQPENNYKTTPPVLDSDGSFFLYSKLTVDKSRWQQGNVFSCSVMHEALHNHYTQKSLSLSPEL

[1] = tested on: primary KIR2DL3+ NK cells; assay: Primary NK cell degranulation (CD107a) against peptide-pulsed 721.221-ICP47-C*03:04 cells, KIR2DL3+ subset; assay type: cell-based, human; details: for Relative degranulation of KIR2DL3+ NK cells (CD107a): % CD107a+ NK cells divided by % with GKL control peptide, effector:target 1:5, 6 h at 26°C, mean ± SEM, nine donors; for KIR2DL3+ NK Cell Activity (Mean ± SEM): ratio of percent CD107a+ KIR2DL3+ NK cells with variant peptide to that with wild-type peptide
Protocol: (§1) To determine activation of primary NK cells following exposure to target cells pulsed with different peptide variants, NK cell degranulation assays measuring CD107a expression were performed using freshly isolated and purified NK cells from nine healthy KIR2DL3+ individuals. Primary NK cells were isolated by incubating whole blood with RosetteSep Human NK Cell Enrichment Cocktail (Stemcell Technologies) for 20 min at room temperature, followed by Histopaque-1077 (Sigma) density gradient centrifugation. NK cells were rested overnight in RPMI medium 1640 (Sigma-Aldrich) supplemented with 10% heat-inactivated fetal calf serum (Sigma-Aldrich), 2,500 U/ml penicillin, 2,500 μg/ml streptomycin, […] L-glutamine (Cellgro), and 1.0 ng/ml IL-15 (Cellgro). Subsequently, NK cells (1 × 10^5) were co-incubated with peptide-pulsed 721.221-ICP47-C*03:04 cells (5 × 10^5) at an effector:target ratio of 1:5 in RPMI containing anti-human CD107a-PE-Cy7 (12.5 μl/ml) and monensin (1.5 μl/ml, BD GolgiStop). Cells were incubated for 6 h at 26°C in 5% CO2. Cells were stained with 7AAD, anti-CD3-PB, anti-CD16-BV785, anti-CD56-BV605, anti-CD14/19-BV510, anti-KIR2DL2/3-PE, and anti-KIR2DL3-APC, washed, fixed with 4% (w/v in PBS) paraformaldehyde (Affymetrix), and analyzed by multiparameter flow cytometry using a BD LSR II.
Flow cytometry data were analyzed using FlowJo software version 10.0.6 (Tree Star), and statistical analysis was performed using GraphPad Prism 6 (GraphPad Software). HLA stabilization values are shown as mean relative fluorescence intensity; error bars represent standard deviation (SD). Relative fluorescence intensity was calculated by dividing the geometric mean fluorescence intensity (gMFI) of HLA expression in the presence of the tested peptide by the gMFI of stained target cells without peptide added in each respective assay. Binding of KIR2DL3-Fc is represented as percent of KIR2DL3+ cells ± SD. […] A repeated-measures one-way ANOVA was subsequently performed to compare the responses between the wild-type group and the groups of the two variant peptides, for the KIR2DL3+ and KIR2DL3− NK cells, respectively. This was followed by a Tukey’s post hoc test. Each individual was sampled one time.

[2] = tested on: primary KIR2DL3− NK cells; assay: Primary NK cell degranulation (CD107a) against peptide-pulsed 721.221-ICP47-C*03:04 cells, KIR2DL3− subset; assay type: cell-based, human; details: % CD107a+ NK cells divided by % with GKL control peptide; effector:target 1:5, 6 h at 26°C; mean ± SEM, nine donors
Protocol: as §1
Flow cytometry data were analyzed using FlowJo software version 10.0.6 (Tree Star), and statistical analysis was performed using GraphPad Prism 6 (GraphPad Software). HLA stabilization values are shown as mean relative fluorescence intensity; error bars represent standard deviation (SD). Relative fluorescence intensity was calculated by dividing the geometric mean fluorescence intensity (gMFI) of HLA expression in the presence of the tested peptide by the gMFI of stained target cells without peptide added in each respective assay. Binding of KIR2DL3-Fc is represented as percent of KIR2DL3+ cells ± SD. […]

[3] = molecular target: biotinylated HLA-C*03:04 monomer refolded with … (human | not stated | HIV-1 clade C); assay: SPR; Biacore 3000; […]) 10 μg/ml in PBS, 60 μl at 20 μl/min; HBS-EP; 25°C; […]
[4] = 0.1 μM peptide (non-saturating)

recombinant human KIR2DL3-IgG-Fc chimera, sequence (P43628 22-245, change not shown): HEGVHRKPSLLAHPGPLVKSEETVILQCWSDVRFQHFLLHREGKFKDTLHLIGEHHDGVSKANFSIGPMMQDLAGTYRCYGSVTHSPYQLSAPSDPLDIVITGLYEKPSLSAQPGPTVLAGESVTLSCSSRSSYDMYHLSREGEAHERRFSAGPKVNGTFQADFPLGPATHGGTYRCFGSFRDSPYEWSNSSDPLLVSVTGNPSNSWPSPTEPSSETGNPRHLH

| Substance | HLA-C*03:04 stabilization, mean relative fluorescence intensity (RFI) (HLA-C*03:04) | HLA-C*03:04 stabilization, mean relative fluorescence intensity, titration (HLA-C*03:04) | KIR2DL3-Fc binding, percent of cells binding KIR2DL3-Fc (KIR2DL3) | KIR2DL3-Fc Binding (Mean ± SD) (KIR2DL3) | Relative degranulation of KIR2DL3+ NK cells (CD107a) [1] | KIR2DL3+ NK Cell Activity (Mean ± SEM) [1] | Relative degranulation of KIR2DL3− NK cells (CD107a) [2] | KIR2DL3 binding (in words) (KIR2DL3; HLA-C*03:04 stabilized at similar levels, used as negative control) | pKd [3] | HLA-C*03:04 stabilization, mean relative fluorescence intensity (HLA-C*03:04; [4]) | HLA-C*03:04 stabilization, mean relative fluorescence intensity (HLA-C*03:04; 1 μM peptide (non-saturating)) |
| --- | --- | --- | --- | --- | --- | --- | --- | --- | --- | --- | --- |
| YVDRFFKAL [TGag303A] | 3.17 ± 0.53 | 1.84 ± 0.79 | 15.46 ± 7.24% | 0.90 ± 0.17 | 0.89 ± 0.05 | 1.36 ± 0.33 | 1.06 ± 0.04 |  |  |  |  |
| GAVDPLLKL [GKL, reference compound] |  |  |  | 0.06 ± 0.03 |  | 1.70 ± 0.3 |  | did not allow for KIR2DL3 binding |  |  |  |
| recombinant human KIR2DL3-IgG-Fc chimera (from UniProt P43628) (Fc fusion) |  |  |  |  |  |  |  |  | 7.03 and 7.11 |  |  |
| YVDRFFKVL [TGag303V] | 3.40 ± 0.74 | 2.17 ± 1.36 | 44.67 ± 14.42% | 2.74 ± 0.66 | 0.63 ± 0.07 | 0.76 ± 0.08 | 1.04 ± 0.05 |  |  |  |  |
| YVDRFFKTL [TGag303] | 3.24 ± 0.64 | 2.60 ± 1.45 | 18.01 ± 10.45% |  | 0.78 ± 0.07 |  | 1.06 ± 0.04 |  |  |  |  |
| RALGPAATL |  |  |  |  |  |  |  |  |  | 1.29 ± 0.19 | 2.72 ± 0.81 |
| RALGPGATL |  |  |  |  |  |  |  |  |  | 2.26 ± 0.39 | 4.24 ± 0.46 |
